Source: patent US7202255B2, “Substituted [1,4] benzodioxino[2,3-e] isoindole derivatives, method for preparing and pharmaceutical compositions containing same” (Les Laboratoires Servier, priority 2002, dated 2007)
Structures can show the parent of a compound that is named as a salt.

| melting point | SMILES |
| --- | --- |
| 214 °C | CN1C(=O)c2c(Oc3ccccc3OS(=O)(=O)C(F)(F)F)cc3[nH]c4ccccc4c3c2C1=O (as salt: methanesulphonate) [Example 38, 2-[(2-Methyl-1,3-dioxo-1,2,3,6-tetrahydropyrrolo[3,4-c]carbazol-4-yl)oxy]phenyl trifluoromethanesulphonate] |
| 130 °C | Cn1c(=O)c2c3oc4ccccc4oc3c3c(oc4ccccc4n3C(=O)Oc3ccccc3)c2c1=O [Example 1, Phenyl 7-methyl-6,8-dioxo-7,8-dihydro[1,4]benzodioxino[2,3-a]-pyrrolo[3,4-c]phenoxazine-15(6H)carboxylate] |
| 150 °C | CN(C)CCn1c(=O)c2c3oc4ccccc4[nH]c3c3oc4ccccc4oc3c2c1=O [Example 2, 7-[2-(Dimethylamino)ethyl][1,4]benzodioxino[2,3-a]pyrrolo[3,4-c]-phenoxazine-6,8(7H,15H)-dione] |
| > 250 °C | Cn1c(=O)c2c3oc4ccccc4oc3c3c(oc4cccnc4n3C(=O)Oc3ccccc3)c2c1=O [Example 3, Phenyl 7-methyl-6,8-dioxo-7,8-dihydro[1,4]benzodioxino[2,3-e]-pyrido[2′,3′:5,6][1,4]oxazino[3,2-g]isoindole-15(6H)-carboxylate] |
| 150 °C (dec.) | CN(C)CCn1c(=O)c2c3oc4cccnc4[nH]c3c3oc4ccccc4oc3c2c1=O [Example 4, 7-[2-(Dimethylamino)ethyl][1,4]benzodioxino[2,3-e]pyrido[2′,3′:5,6]-[1,4]oxazino[3,2-g]isoindole-6,8(7H,15H)-dione] |
| 189 °C (dec.) | Cn1c(=O)c2c3oc4ccccc4oc3c3c(c4ccccc4n3C(=O)OC(C)(C)C)c2c1=O [Example 5, tert-Butyl 7-methyl-6,8-dioxo-7,8-dihydro[1,4]benzodioxino[2,3-a]-pyrrolo[3,4-c]carbazole-13(6H)-carboxylate] |
| 298 °C (dec.) | CN(C)CCn1c(=O)c2c3oc4ccccc4oc3c3[nH]c4ccccc4c3c2c1=O [Example 7, 7-[2-(Dimethylamino)ethyl][1,4]benzodioxino[2,3-a]pyrrolo[3,4-c]-carbazole-6,8(7H,13H)-dione] |
| > 355 °C | Cn1c(=O)c2c3oc4ccccc4oc3c3[nH]c4ccc(F)cc4c3c2c1=O [Example 11, 10-Fluoro-7-methyl[1,4]benzodioxino[2,3-a]pyrrolo[3,4-c]carbazole-6,8(7H,13H)-dione] |
| 337 °C (dec.) | CN(C)CCn1c(=O)c2c3oc4ccccc4oc3c3[nH]c4ccc(F)cc4c3c2c1=O [Example 12, 7-[2-(Dimethylamino)ethyl]-10-fluoro[1,4]benzodioxino[2,3-a]-pyrrolo[3,4-c]carbazole-6,8(7H,13H)-dione] |
| > 360 °C | Cn1c(=O)c2c3oc4ccccc4oc3c3[nH]c4cc(F)ccc4c3c2c1=O [Example 13, 11-Fluoro-7-methyl[1,4]benzodioxino[2,3-a]pyrrolo[3,4-c]carbazole-6,8(7H,13H)-dione] |
| 301 °C (dec.) | CN(C)CCn1c(=O)c2c3oc4ccccc4oc3c3[nH]c4cc(F)ccc4c3c2c1=O [Example 14, 7-[2-(Dimethylamino)ethyl]-11-fluoro[1,4]benzodioxino[2,3-a]-pyrrolo[3,4-c]carbazole-6,8(7H,13H)-dione] |
| > 350 °C | Cn1c(=O)c2c3oc4ccccc4oc3c3[nH]c4ccc(O)cc4c3c2c1=O [Example 18, 10-Hydroxy-7-methyl[1,4]benzodioxino[2,3-a]pyrrolo[3,4-c]-carbazole-6,8(7H,13H)-dione] |
| 254 °C (dec.) | CN(C)CCn1c(=O)c2c3oc4ccccc4oc3c3[nH]c4ccc(OCc5ccccc5)cc4c3c2c1=O [Example 19, 10-(Benzyloxy)-7-[2-(dimethylamino)ethyl][1,4]benzodioxino[2,3-a]-pyrrolo[3,4-c]carbazole-6,8(7H,13H)-dione] |
| > 360 °C | CN(C)CCn1c(=O)c2c3oc4ccccc4oc3c3[nH]c4ccc(O)cc4c3c2c1=O [Example 20, 7-[2-(Dimethylamino)ethyl]-10-hydroxy[1,4]benzodioxino[2,3-a]-pyrrolo[3,4-c]carbazole-6,8(7H,13H)-dione] |
| 360 °C | Cn1c(=O)c2c3oc4ccccc4oc3c3[nH]c4cc(O)ccc4c3c2c1=O [Example 22, 11-Hydroxy-7-methyl[1,4]benzodioxino[2,3-a]pyrrolo[3,4-c]-carbazole-6,8(7H,13H)-dione] |
| 262 °C (dec.) | CN(C)CCn1c(=O)c2c3oc4ccccc4oc3c3[nH]c4cc(OCc5ccccc5)ccc4c3c2c1=O [Example 23, 11-(Benzyloxy)-7-[2-(dimethylamino)ethyl][1,4]benzodioxino[2,3-a]-pyrrolo[3,4-c]carbazole-6,8(7H,13H)-dione] |
| > 360 °C | CN(C)CCn1c(=O)c2c3oc4ccccc4oc3c3[nH]c4cc(O)ccc4c3c2c1=O [Example 24, 7-[2-(Dimethylamino)ethyl]-11-hydroxy[1,4]benzodioxino[2,3-a]-pyrrolo[3,4-c]carbazole-6,8(7H,13H)-dione] |
| > 304 °C | CC(C)(C)OC(=O)n1c2ccc(OCc3ccccc3)cc2c2c3c(=O)[nH]c(=O)c3c3oc4ccccc4oc3c21 [Example 25, tert-Butyl 10-(benzyloxy)-6,8-dioxo-7,8-dihydro[1,4]benzo-dioxino[2,3-a]pyrrolo[3,4-c]carbazole-13(6H)-carboxylate] |
| 199 °C | CC(C)(C)OC(=O)n1c2cc(OCc3ccccc3)ccc2c2c3c(=O)[nH]c(=O)c3c3oc4ccccc4oc3c21 [Example 27, tert-Butyl 11-(benzyloxy)-6,8-dioxo-7,8-dihydro[1,4]benzo-dioxino[2,3-a]pyrrolo[3,4-c]carbazole-13(6H)-carboxylate] |
| > 340 °C | O=c1[nH]c(=O)c2c1c1oc3ccccc3oc1c1[nH]c3cc(O)ccc3c12 [Example 28, 11-Hydroxy[1,4]benzodioxino[2,3-a]pyrrolo[3,4-c]carbazole-6,8(7H,13H)-dione] |
| 198 °C | CC(C)(C)OC(=O)n1c2cc(OCc3ccccc3)ccc2c2c3c(c(Oc4ccccc4O)cc21)C(=O)NC3=O [Example 30, tert-Butyl 8-(benzyloxy)-4-(2-hydroxyphenoxy)-1,3-dioxo-2,3-dihydropyrrolo[3,4-c]carbazole-6(1H)-carboxylate] |
| 170 °C | CN1C(=O)c2c(Oc3ccccc3O)cc3c(c2C1=O)c1cc(OCc2ccccc2)ccc1n3C(=O)OC(C)(C)C [Example 31, tert-Butyl 9-(benzyloxy)-4-(2-hydroxyphenoxy)-2-methyl-1,3-dioxo-2,3-dihydropyrrolo[3,4-c]carbazole-6(1H)-carboxylate] |
| 277 °C (dec.) | CN1C(=O)c2c(Oc3ccccc3O)cc3[nH]c4ccc(O)cc4c3c2C1=O [Example 32, 9-Hydroxy-4-(2-hydroxyphenoxy)-2-methylpyrrolo[3,4-c]-carbazole-1,3(2H,6H)-dione] |
| 182 °C (dec.) | CN1C(=O)c2c(Oc3ccccc3O)cc3c(c2C1=O)c1ccccc1n3C(=O)OC(C)(C)C [Example 33, tert-Butyl 4-(2-hydroxyphenoxy)-2-methyl-1,3-dioxo-2,3-dihydropyrrolo[3,4-c]carbazole-6(1H)-carboxylate] |
| > 333 °C | COc1ccccc1Oc1cc2c(c3c1C(=O)N(C)C3=O)c1ccccc1n2C(=O)OC(C)(C)C [Example 34, tert-Butyl 4-(2-methoxyphenoxy)-2-methyl-1,3-dioxo-2,3-dihydropyrrolo[3,4-c]carbazole-6(1H)-carboxylate] |
| 228 °C | COc1ccccc1Oc1cc2[nH]c3ccccc3c2c2c1C(=O)N(C)C2=O [Example 35, 4-(2-Methoxyphenoxy)-2-methylpyrrolo[3,4-c]carbazole-1,3(2H,6H)-dione] |
| 182 °C | CN1C(=O)c2c(Oc3ccccc3OS(=O)(=O)C(F)(F)F)cc3c(c2C1=O)c1ccccc1n3C(=O)OC(C)(C)C [Example 37, tert-Butyl 2-methyl-1,3-dioxo-4-(2-{[(trifluoromethyl)sulphonyl]-oxy}phenoxy)-2,3-dihydropyrrolo[3,4-c]carbazole-6(1H)-carboxylate] |
| 191 °C | CN1C(=O)c2c(Oc3ccccc3O)cc3c(c2C1=O)c1ccc(OCc2ccccc2)cc1n3C(=O)OC(C)(C)C [Example 39, tert-Butyl 8-(benzyloxy)-4-(2-hydroxyphenoxy)-2-methyl-1,3-dioxo-2,3-dihydropyrrolo[3,4-c]carbazole-6(1H)-carboxylate] |
| 186 °C | CN1C(=O)c2c(Oc3ccccc3OS(=O)(=O)C(F)(F)F)cc3c(c2C1=O)c1ccc(OCc2ccccc2)cc1n3C(=O)OC(C)(C)C [Example 40, tert-Butyl 8-(benzyloxy)-2-methyl-1,3-dioxo-4-(2-{[(trifluoro-methyl)sulphonyl]oxy}phenoxy)-2,3-dihydropyrrolo[3,4-c]-carbazole-6(1H)-carboxylate] |
| 200 °C | CN1C(=O)c2c(Oc3ccccc3O)cc3[nH]c4cc(O)ccc4c3c2C1=O [Example 41, 8-Hydroxy-4-(2-hydroxyphenoxy)-2-methylpyrrolo[3,4-c]-carbazole-1,3(2H,6H)-dione] |
